Results reported in US20250115620A1, “BRIDGED TRICYCLIC CARBAMOYLPYRIDONE COMPOUNDS AND USES THEREOF” (Gilead Sciences, Inc., priority 2022, published 2025).
Where two headings read alike, the source gives them in different places.

What was measured:
in vitro = conditions: human; for CC50 at 5 days: uninfected MT-4 cells
Method: Compounds were serially diluted (1:3) in DMSO on 384-well polypropylene plates and further diluted 200-fold into complete RPMI media (10% FBS, 1% P/S) using the Biotek Micro Flow and Labcyte ECHO acoustic dispenser. […] Infected and uninfected MT-4 cells were further diluted in complete RPMI media and added to each plate using a Micro Flow dispenser. After 5 days incubation in a humidified and temperature controlled incubator (37° C.), Cell Titer Glo (Promega) was added to the assay plates and chemiluminescence read using an Envision plate-reader.
Assays were performed as above except uninfected MT-4 cells were added to each well containing test compound. In addition, 10 μM puromycin was added to the last column of each assay plate to assess a base level of cytotoxicity.

HIV-1 (IIIB) = experiment: microbe, parasite or virus in culture; assay type: cell-based; conditions: Human immunodeficiency virus 1, IIIB, MT4, 120 h, read-out: MT4 EC50
Method: Compounds were tested in a high-throughput 384-well assay format for their ability to inhibit the replication of HIV-1 (IIIB) in MT-4 cells. Compounds were serially diluted (1:3) in DMSO on 384-well polypropylene plates and further diluted 200-fold into complete RPMI media (10% FBS, 1% P/S) using the Biotek Micro Flow and Labcyte ECHO acoustic dispenser. Each plate contained up to 8 test compounds, with negative (No Drug Control) and 5 μM AZT positive controls. MT-4 cells were pre-infected with 10 μL of either RPMI (mock-infected) or a fresh 1:250 dilution of HIV-1 IIIB concentrated virus stock. Infected and uninfected MT-4 cells were further diluted in complete RPMI media and added to each plate using a Micro Flow dispenser. After 5 days incubation in a humidified and temperature controlled incubator (37° C.), Cell Titer Glo (Promega) was added to the assay plates and chemiluminescence read using an Envision plate-reader.

pLAI reporter virus = experiment: microbe, parasite or virus in culture; assay type: cell-based, HIV; conditions: Human immunodeficiency virus 1, MT4, 72 h
[1] = HIV-1 (IIIB) in MT-4 cells, 5 days incubation, Cell Titer Glo

SMILES	CC50 at 5 days (in vitro) [nM]	EC50 (HIV-1 (IIIB); [1]) [nM]	EC50 (pLAI reporter virus; read-out: RLUC 50% HS EC50) [nM]	EC50 (pLAI reporter virus; read-out: RLUC CCM EC50) [nM]	CC50 (in vitro) [nM]	EC50 (HIV-1 (IIIB)) [nM]
CCCC1=NO[C@@]2(CC[C@H](C)N3C[C@H]2n2cc(C(=O)NCc4c(F)cc(F)cc4F)c(=O)c(O)c2C3=O)C1 [Example 68, (3′S,5S,7′R)-12′-hydroxy-3′-methyl-1′,11′-dioxo-3-propyl-N-(2,4,6-trifluorobenzyl)-1′,4′,5′,11′-tetrahydro-3′H,4H,7′H-spiro[isoxazole-5,6′-[2,7]methanopyrido[1,2-a][1,4]diazonine]-10′-carboxamide]	15700	1.2	85.4	0.3	–	–
COC1=NO[C@@]2(CC[C@H](CF)N3C[C@H]2n2cc(C(=O)NCc4ccc(F)cc4F)c(=O)c(O)c2C3=O)C1 [Example 100, (3′R,5S,7′R)—N-(2,4-difluorobenzyl)-3′-(fluoromethyl)-12′-hydroxy-3-methoxy-1′,11′-dioxo-1′,4′,5′,11′-tetrahydro-3′H,4H,7′H-spiro[isoxazole-5,6′-[2,7]methanopyrido[1,2-a][1,4]diazonine]-10′-carboxamide]	≥ 50000	1.5	13.5	0.3	–	–
C[C@H]1CC[C@]2(CC(n3cccn3)=NO2)[C@H]2CN1C(=O)c1c(O)c(=O)c(C(=O)NCc3c(F)cc(F)cc3F)cn12 [Example 77, (3′S,5S,7′R)-12′-hydroxy-3′-methyl-1′,11′-dioxo-3-(1H-pyrazol-1-yl)-N-(2,4,6-trifluorobenzyl)-1′,4′,5′,11′-tetrahydro-3′H,4H,7′H-spiro[isoxazole-5,6′-[2,7]methanopyrido[1,2-a][1,4]diazonine]-10′-carboxamide]	1480	2.9	17.7	0.5	–	–
CC(C)C1=NO[C@@]2(CC[C@H](C)N3C[C@H]2n2cc(C(=O)NCc4ccc(F)cc4F)c(=O)c(O)c2C3=O)C1 [Example 7, (3′S,5S,7′R)—N-(2,4-difluorobenzyl)-12′-hydroxy-3-isopropyl-3′-methyl-1′,11′-dioxo-1′,4′,5′,11′-tetrahydro-3′H,4H,7′H-spiro[isoxazole-5,6′-[2,7]methanopyrido[1,2-a][1,4]diazonine]-10′-carboxamide]	38200	1.9	1.6	0.5	–	–
CSC1=NO[C@@]2(CC[C@H](C)N3C[C@H]2n2cc(C(=O)NCc4c(F)cc(F)cc4F)c(=O)c(O)c2C3=O)C1 [Example 43, (3′S,5S,7′R)-12′-hydroxy-3′-methyl-3-(methylthio)-1′,11′-dioxo-N-(2,4,6-trifluorobenzyl)-1′,4′,5′,11′-tetrahydro-3′H,4H,7′H-spiro[isoxazole-5,6′-[2,7]methanopyrido[1,2-a][1,4]diazonine]-10′-carboxamide]	33400	6.1	279	1.5	–	–
C[C@H]1CCC2(OCCO2)[C@H]2CN1C(=O)c1c(O)c(=O)c(C(=O)NCc3c(F)cc(F)cc3F)cn12 [Example 125, (3′S,7′R)-12′-hydroxy-3′-methyl-1′,11′-dioxo-N-(2,4,6-trifluorobenzyl)-1′,4′,5′,11′-tetrahydro-3′H,7′H-spiro[[1,3]dioxolane-2,6′-[2,7]methanopyrido[1,2-a][1,4]diazonine]-10′-carboxamide]	24200	0.7	30.2	0.2	–	–
C[C@H]1CC[C@]2(OC[C@@H](Cc3ccccc3)O2)[C@H]2CN1C(=O)c1c(O)c(=O)c(C(=O)NCc3c(F)cc(F)cc3F)cn12 (single isomer, unassigned) [169 (peak 2)]	45100	4.3	4	2	–	–
COC[C@H]1CO[C@]2(CC[C@H](C)N3C[C@H]2n2cc(C(=O)NCc4c(F)cc(F)cc4F)c(=O)c(O)c2C3=O)O1 [Example 167, (2R,3′S,4S,7′R)-12′-hydroxy-4-(methoxymethyl)-3′-methyl-1′,11′-dioxo-N-(2,4,6-trifluorobenzyl)-1′,4′,5′,11′-tetrahydro-3′H,7′H-spiro[[1,3]dioxolane-2,6′-[2,7]methanopyrido[1,2-a][1,4]diazonine]-10′-carboxamide]	35800	1.7	8.7	0.6	–	–
C[C@H]1CC[C@]2(CC(OCC(F)F)=NO2)[C@H]2CN1C(=O)c1c(O)c(=O)c(C(=O)NCc3ccc(F)cc3F)cn12 [Example 47, (3′S,5S,7′R)—N-(2,4-difluorobenzyl)-3-(2,2-difluoroethoxy)-12′-hydroxy-3′-methyl-1′,11′-dioxo-1′,4′,5′,11′-tetrahydro-3′H,4H,7′H-spiro[isoxazole-5,6′-[2,7]methanopyrido[1,2-a][1,4]diazonine]-10′-carboxamide]	27500	1.8	6.5	0.5	–	–
C[C@H]1CCC2(OCCCO2)[C@H]2CN1C(=O)c1c(O)c(=O)c(C(=O)NCc3c(F)cc(F)cc3F)cn12 [Example 128, (3′S,7′R)-12′-hydroxy-3′-methyl-1′,11′-dioxo-N-(2,4,6-trifluorobenzyl)-1′,4′,5′,11′-tetrahydro-3′H,7′H-spiro[[1,3]dioxane-2,6′-[2,7]methanopyrido[1,2-a][1,4]diazonine]-10′-carboxamide]	20500	1.1	18.4	0.2	–	–
C[C@H]1CC[C@@]2(CNC(=O)C2)[C@H]2CN1C(=O)c1c(O)c(=O)c(C(=O)NCc3c(F)cc(F)cc3F)cn12 [Example 57, (3R,3′S, 7′S)-12′-hydroxy-3′-methyl-1′,5,11′-trioxo-N-(2,4,6-trifluorobenzyl)-1′,4′,5′,11′-tetrahydro-3′H, 7′H-spiro[pyrrolidine-3,6′-[2,7]methanopyrido[ ],2-a][1,4]diazonine-10′-carboxamide]	–	–	6	13.8	≥ 50000	27.9
C[C@H]1CC[C@]2(CC(=O)N(Cc3ccc(Cl)cc3)O2)[C@H]2CN1C(=O)c1c(O)c(=O)c(C(=O)NCc3c(F)cc(F)cc3F)cn12 [Example 109, (3′S,5S,7′R)-2-(4-chlorobenzyl)-12′-hydroxy-3′-methyl-1′,3,11′-trioxo-N-(2,4,6-trifluorobenzyl)-1′,4′,5′,11′-tetrahydro-3′H,7′H-spiro[isoxazolidine-5,6′-[2,7]methanopyrido[1,2-a][1,4]diazonine]-10′-carboxamide]	2890	1.6	3.9	0.3	–	–
CNC1=NO[C@@]2(CC[C@H](C)N3C[C@H]2n2cc(C(=O)NCc4c(F)cc(F)cc4F)c(=O)c(O)c2C3=O)C1 [Example 51, (3′S,5S,7′R)-12′-hydroxy-3′-methyl-3-(methylamino)-1′,11′-dioxo-N-(2,4,6-trifluorobenzyl)-1′,4′,5′,11′-tetrahydro-3′H,4H,7′H-spiro[isoxazole-5,6′-[2,7]methanopyrido[1,2-a][1,4]diazonine]-10′-carboxamide]	41100	1.3	5.2	0.3	–	–
C[C@H]1CC[C@@]2(CC(=O)N(C)C2)[C@H]2CN1C(=O)c1c(O)c(=O)c(C(=O)NCc3c(F)cc(F)cc3F)cn12 [Example 62, (3S,3′S,7′S)-12′-hydroxy-1,3′-dimethyl-1′,5,11′-trioxo-N-(2,4,6-trifluorobenzyl)-1′,4′,5′,11′-tetrahydro-3′H,7′H-spiro[pyrrolidine-3,6′-[2,7]methanopyrido[1,2-a][1,4]diazonine]-10′-carboxamide]	≥ 50000	31.1	13.4	7.8	–	–
C[C@H]1CC[C@]2(CC(C3CC3)=NO2)[C@H]2CN1C(=O)c1c(O)c(=O)c(C(=O)NCc3ccc(F)cc3F)cn12 [Example 15, (3′S,5S,7′R)-3-cyclopropyl-N-(2,4-difluorobenzyl)-12′-hydroxy-3′-methyl-1′,11′-dioxo-1′,4′,5′,11′-tetrahydro-3′H,4H,7′H-spiro[isoxazole-5,6′-[2,7]methanopyrido[1,2-a][1,4]diazonine]-10′-carboxamide]	≥ 50000	2.4	3.8	0.8	–	–
C[C@H]1CC[C@]2(CC(=O)N(Cc3cccc(C(F)(F)F)c3)O2)[C@H]2CN1C(=O)c1c(O)c(=O)c(C(=O)NCc3c(F)cc(F)cc3F)cn12 [Example 111, (3′S,5S,7′R)-12′-hydroxy-3′-methyl-1′,3,11′-trioxo-N-(2,4,6-trifluorobenzyl)-2-(3-(trifluoromethyl)benzyl)-1′,4′,5′,11′-tetrahydro-3′H,7′H-spiro[isoxazolidine-5,6′-[2,7]methanopyrido[1,2-a][1,4]diazonine]-10′-carboxamide]	7230	2.3	1.9	0.4	–	–
C[C@@H](F)C1=NO[C@@]2(CC[C@H](C)N3C[C@H]2n2cc(C(=O)NCc4c(F)cc(F)cc4F)c(=O)c(O)c2C3=O)C1 [Example 70, (3′S,5S,7′R)-3-((R)-1-fluoroethyl)-12′-hydroxy-3′-methyl-1′,11′-dioxo-N-(2,4,6-trifluorobenzyl)-1′,4′,5′,11′-tetrahydro-3′H,4H,7′H-spiro[isoxazole-5,6′-[2,7]methanopyrido[1,2-a][1,4]diazonine]-10′-carboxamide]	26600	1.3	176	0.4	–	–
COC1=NO[C@@]2(CC[C@@H](C)N3C[C@H]2n2cc(C(=O)NCc4c(F)cc(F)cc4F)c(=O)c(O)c2C3=O)C1 [Example 97, (3′R,5S,7′R)-12′-hydroxy-3-methoxy-3′-methyl-1′,11′-dioxo-N-(2,4,6-trifluorobenzyl)-1′,4′,5′,11′-tetrahydro-3′H,4H,7′H-spiro[isoxazole-5,6′-[2,7]methanopyrido[1,2-a][1,4]diazonine]-10′-carboxamide]	10400	2.5	1.8	0.5	–	–
